Measured values reported in patent US9056923B2, “Mimetic peptides derived from collagen type IV and their use for treating angiogenesis- and lymphagiogenesis-dependent diseases” (THE JOHNS HOPKINS UNIVERSITY, priority 2010, dated 2015).
Where two headings read alike, the source gives them in different places. Square brackets hold non-standard residues; d marks the D form. Ends that are not written are not given here. Peptide text beside a SMILES is read from it. AllylGly = C=CC[C@H](N)C(=O)O; Abu = CC[C@H](N)C(=O)O

Key:
HUVEC [1] = assay type: cell-based, human; conditions: for Activity in Proliferation: Yes/No summary
Protocol: Several assays were used to test the peptides discussed in the Examples herein. A colorimetric based proliferation assay using WST-1 (Roche, 11644807001) proliferation reagent was carried out using HUVEC cells. 2000 cells/well were plated in 96-well plates and allowed to adhere overnight. On the following day, the media was exchanged with fully supplemented media containing peptides or equivalent DMSO vehicle for the controls. Three days later the media containing the peptides was replaced with serum-free EBM-2 media containing WST-1 reagent and the plates were incubated for four hours as per the manufacturer's recommendations. Changes in color, due to the formazan dye resulted from the cleavage of the tetrazolium salt WST-1 by the mitochondrial succinate-tetrazolium reductase, were read on a Victor V fluorescence plate reader (Perkin Elmer, MA) by measuring the absorbance at 450 nm Dose response curves of percent live cells (in comparison to untreated cells but incubated in complete media with 0.2% DMSO) were created. Assays were performed in at least two independent replicates and each replicate was performed using three experimental triplicates.

HUVEC [2] = experiment: HUVEC migration assay (RT-CIM); assay type: cell-based, human; conditions: for Activity in Migration: Yes/No summary, active = inhibitory potential greater than 30%; for Migration Inhibition (50 uM): 50 uM peptide
Protocol: The inhibitory potential of the peptides was measured using a real time migration assay system based on electrical impedance (RT-CIM, ACEA Biosciences, CA). CIM 16 well plates (Roche, 05665817001) are composed of a top and bottom chamber separated by a microporous (8 μm) polycarbonate membrane. The membrane was coated with fibronectin (20 μg/mL), and 45,000 cells/well in serum free media with or without peptides were added to the top compartment. Media with chemoattractant (i.e., fully supplemented EBM-2) was added to the bottom compartment of the chamber and the plate was incubated at 37° C. for 20 hours. The sensors integrated on the bottom side of the membrane monitor and continuously record changes in impedance as the cells move through the membrane. The RT-CIM technology allows for easy quantification of cell migration by monitoring the cell index derived from the measured impedances. Assays were performed in at least two independent replicates and each replicate was performed using two experimental duplicates.

HUVEC [3] = assay type: cell-based, human; conditions: for IC50: 3 h; for Activity in Adhesion / Adhesion Inhibition (100 uM): HUVEC; for Activity in Adhesion: Yes/No summary, active = inhibitory potential greater than 30%; for Adhesion Inhibition (100 uM): 100 uM peptide
Protocol: Similar to the migration assays, the inhibition activity of the peptide in cellular adhesion was assessed using the RT-CIM technology. In this case, 25,000 cells/well were plated in 16 wells E-plates (Roche, Basel Switzerland) in the presence or absence of the peptide. The adhesion was monitored over time (3 hours) by measuring changes in the electrical impedance, which is a direct measure of the cells adhering on the electrodes. […] Assays were performed in at least two independent replicates and each replicate was performed using two experimental duplicates.

HUVEC [4] = experiment: HUVEC tube formation assay on Matrigel; assay type: cell-based, human; conditions: for Activity in Tube formation: Yes/No summary; for Tube formation Inhibition (100 uM): 100 uM peptide
Protocol: The compounds also were tested for their ability to inhibit tube formation, a process critical in angiogenesis. Endothelial cells spontaneously form a network of tubes when plated on extracts of extracellular matrix. This in vitro assay combines aspects of adhesion and migration and it is routinely used in angiogenesis research (Oliveira-Ferrer et al., 2008). The ability to inhibit tube formation is a comprehensive assessment of the anti-angiogenic potential. The protocol was described by Arnaoutova et al. (2009) and it consists of plating HUVEC on top of basement membrane extract and after incubation at 37° C. the cells naturally rearrange themselves in a network of tubes. Thus, 50 μL/well of Matrigel (BD Biosciences, San Jose, Calif.) was plated in a cold 96 well plate and incubated at 37° C. for 30 min for polymerization. 15,000 cells/well were added to the top of the gel and incubated in complete media in the presence or absence of peptide for 19 hours. Images were captured using the CCD Sensicam mounted on a Nikon microscope (Eclipse T-100). Assays were performed in at least two independent replicates and each replicate was performed using three experimental replicates and one image of a randomly chosen field was acquired per well.

[5] = system: choroidal neovascularization; experiment: Laser-induced choroidal neovascularization model; assay type: in vivo, C57BL/6 mice; conditions: 0.1 μg into a mouse eye
Protocol: The ocular laser-induced choroidal neovascularization (NV) model of wet age-related macular degeneration was used for testing. 5-6-week-old female pathogen-free C57BL/6 mice were anesthetized with ketamine hydrochloride (100 mg/kg body weight) and pupils were dilated. Laser photocoagulation (75-μm spot size, 0.1-sec duration, 120 mW) was performed in the 9, 12, and 3 o'clock positions of the posterior pole of each eye with the slit lamp delivery system of an OcuLight GL diode laser (Iridex, Mountain View, Calif.) and a handheld cover slip as a contact lens to view the retina. Production of a tissue bubble by the laser, which indicates rupture of Bruch's membrane, is an important factor in obtaining choroidal NV; therefore, only burns in which a bubble is produced are included in the study. […] At day 7 the mice that received the naked peptides were dosed again whereas the mice that received the particles were administered PBS. Intravitreous injections were done under a dissecting microscope with a Harvard Pump Microinjection System and pulled glass micropipettes. After 14 days, the mice were perfused with 1 mL of PBS containing 50 mg/mL of fluorescein-labeled dextran (2×10^6 Daltons average molecular weight; Sigma-Aldrich, St. Louis, Mo.) and choroidal flat mounts were examined by fluorescence microscopy. Images were captured with a Nikon Digital Still Camera DXM1200 (Nikon Instruments Inc., New York, N.Y.). Image analysis software (Image-Pro Plus; Media Cybernetics, Silver Spring, Md.) was used to measure the total area of choroidal NV at each rupture site with the investigator masked with respect to treatment group.

[6] = system: VEGF mediated retinal neovascularization; experiment: Rho/VEGF transgenic mice model of retinal neovascularization; assay type: in vivo; conditions: for area of retinal neovascularization in the Rho/VEGF model: 0.1 μg into a mouse eye
Protocol: The ocular Rho/VEGF transgenic mice model of wet age-related macular degeneration also was used to test some of the peptides. Transgenic mice in which the rhodopsin promoter drives expression of VEGF in photoreceptors have the onset of VEGF production at P7 and develop extensive NV along the outer surface of the retina by P21 (Okamoto et al., 1997; To be et al., 1998). Mice hemizygous for the transgene (n=15 for each dose) were given an intraocular injection of 1 μl of PBS containing 0.01, 0.1, or 1 μg of peptide or scramble peptide in one eye at P7 and P14 and at P21 the mice were anesthetized, perfused with fluorescein-labeled dextran, and the total area of neovascularization on the outer surface of the retina was measured on retinal flat mounts by image analysis as above.

MDA-MB-231 xenograft = experiment: MDA-MB-231 orthotopic breast tumor xenograft; assay type: in vivo, SCID mice; conditions: for MDA-MB-231 xenograft inhibition: mice
Protocol: For primary tumor inhibition studies, 1−2×10^6 tumor cells were injected into 4-6 wk old female SCID mice. After the tumors reached a size of 100 mm^3 the animals were randomized into groups of 10 animals each. The animals were treated with vehicle, SP2012, SP2000, or SP2024. The peptides were administered subcutaneously daily. Dosing was continued for 3 or 4 weeks and tumor sizes were measured every 3 days using calipers. The tumor volume was estimated using the formula V=a^2b/2 where a and b are the smaller and larger diameters.
For the tumor xenograft assay, animals were housed and treated according to the approved animal protocol of the Institutional Care and Use Committee at Johns Hopkins Medical Institution (JHMI). Orthotopic breast tumors were initiated in SCID mice using MDA-MB-231 cells. 2×10^6 cells per 100 μL aliquot of single cell suspension were injected in the breast mannary fat pad. Tumors reached volumes of 75 mm^3 to 100 mm^3 in approximately 14-21 days. Mice were randomized and arranged in groups (8 mice per group) with similar tumor volumes (no statistical difference among averages) and treatment was commenced. Peptides were administered once per day intraperitoneally (i.p.) at doses of 10 mg/kg (subcutaneous delivery was also tested with certain peptides). Paclitaxel was administered at 5 mg/kg once a week, and to maintain the daily treatment regime PBS was administered on the non-treatment days. Tumors were measured every fourth day using calipers and the tumor volume was calculated using the formula V=ab^2/2, where a is the larger diameter and b is the smaller diameter.

Molecule | Activity in Proliferation (HUVEC [1]; HUVEC) | Activity in Migration (HUVEC [2]) | IC50 (HUVEC [3]) | Activity in Adhesion (HUVEC [3]) | Activity in Tube formation (HUVEC [4]) | laser-induced choroidal neovascularization [5] | area of retinal neovascularization in the Rho/VEGF model [6] | IC50 (HUVEC [1]) | Migration Inhibition (50 uM) (HUVEC [2]) | Adhesion Inhibition (100 uM) (HUVEC [3]) | Tube formation Inhibition (100 uM) (HUVEC [4]) | suppression of tumor growth (MDA-MB-231 xenograft; MDA-MB-231 xenograft in mice, 10 mg/kg daily) | microvascular density (MDA-MB-231 xenograft; after completion of the treatment at 21 days) | MDA-MB-231 xenograft inhibition (MDA-MB-231 xenograft) | loss of activity in proliferation compared to substitution of Methionine at position 10 (HUVEC [1]; HUVEC) | inhibition of VEGF mediated angiogenesis ([6]; 0.1 μg administered directly into the eye) | inhibition of migration (HUVEC [2]; concentration not given) | inhibition of tube formation (FIG. 20) (HUVEC [4]; high dose, 100 nM) | inhibition of proliferation (HUVEC [1]; HUVEC) | Migration Inhibition (5 uM) (HUVEC [2]; 5 uM peptide)
CC[C@H](C)[C@H](NC(=O)[C@H](CC(N)=O)NC(=O)[C@@H](NC(=O)[C@H](Cc1ccccc1)NC(=O)[C@H](C)NC(=O)[C@H](Cc1ccccc1)NC(=O)[C@@H]1CCCN1C(=O)[C@H](CCSC)NC(=O)[C@@H](NC(=O)[C@H](CO)NC(=O)[C@H](Cc1ccccc1)NC(=O)[C@H](CCCNC(=N)N)NC(=O)[C@H](CCCNC(=N)N)NC(=O)[C@@H](N)CC(C)C)[C@@H](C)O)[C@@H](C)CC)C(=O)N[C@@H](CC(N)=O)C(=O)N[C@@H](CC(N)=O)C(=O)N[C@H](C(=O)N[C@H](C(=O)N[C@@H](CC(N)=O)C(=O)N[C@@H](Cc1ccccc1)C(N)=O)[C@@H](C)CC)C(C)C [SP2035] | Yes | Yes | 2.51 ± 0.88 µM | Yes | Yes | inhibited laser-induced choroidal neovascularization | inhibited | – | – | – | – | – | – | – | – | – | – | – | – | –
CC[C@H](C)[C@H](NC(=O)[C@H](CC(N)=O)NC(=O)[C@H](CS)NC(=O)[C@H](Cc1ccccc1)NC(=O)[C@H](CCSC)NC(=O)[C@H](Cc1ccccc1)NC(=O)[C@@H]1CCCN1C(=O)[C@H](CCSC)NC(=O)[C@@H](NC(=O)[C@H](CO)NC(=O)[C@H](Cc1ccccc1)NC(=O)[C@H](CCCNC(=N)N)NC(=O)[C@H](CCCNC(=N)N)NC(=O)[C@@H](N)CC(C)C)[C@@H](C)O)C(=O)N[C@@H](CC(N)=O)C(=O)N[C@@H](CC(N)=O)C(=O)N[C@H](C(=O)N[C@@H](CS)C(=O)N[C@@H](CC(N)=O)C(=O)N[C@@H](Cc1ccccc1)C(N)=O)C(C)C [SP2000, reference compound] (H-LRRFSTMPFMFCNINNVCNF-NH2; N-terminus assumed) | – | – | – | – | – | – | – | 15.5 µM | 80% | 95% | Complete | tumor growth was inhibited | statistically different from one another | Active | – | – | – | – | – | –
LRRFSTAPFAFININNVINF-NH2 [SP2036] | Yes | Yes | 2.75 ± 1.22 µM | Yes | Yes | inhibited laser-induced choroidal neovascularization | inhibited | 9.97 ± 8.3 µM | – | – | – | – | – | – | 10 fold | about 70% | – | – | – | –
CC[C@H](NC(=O)[C@H](Cc1ccccc1)NC(=O)[C@H](CCSC)NC(=O)[C@H](Cc1ccccc1)NC(=O)[C@@H]1CCCN1C(=O)[C@H](CCSC)NC(=O)[C@@H](NC(=O)[C@@H](N)CO)[C@@H](C)O)C(=O)N[C@@H](CC(N)=O)C(=O)N[C@H](C(=O)N[C@@H](CC(N)=O)C(=O)N[C@@H](CC(N)=O)C(=O)N[C@H](C(=O)N[C@@H](CC)C(=O)N[C@@H](CC(N)=O)C(=O)N[C@@H](Cc1ccccc1)C(=O)O)C(C)C)[C@@H](C)CC [SP2011, STMPFMFAbuNINNVAbuNF-OH] (H-STMPFMF[Abu]NINNV[Abu]NF-OH; N-terminus assumed) | No | No | – | Yes | No | – | – | 51.4 µM | Inactive | 0% | Partial | – | – | Active | – | – | inactive in the migration assay | no activity in tube formation | – | –
C=CC[C@H](NC(=O)[C@H](Cc1ccccc1)NC(=O)[C@H](CCSC)NC(=O)[C@H](Cc1ccccc1)NC(=O)[C@@H]1CCCN1C(=O)[C@H](CCSC)NC(=O)[C@@H](NC(=O)[C@H](CO)NC(=O)[C@H](Cc1ccccc1)NC(=O)[C@H](CCCNC(=N)N)NC(=O)[C@H](CCCNC(=N)N)NC(=O)[C@@H](N)CC(C)C)[C@@H](C)O)C(=O)N[C@@H](CC(N)=O)C(=O)N[C@H](C(=O)N[C@@H](CC(N)=O)C(=O)N[C@@H](CC(N)=O)C(=O)N[C@H](C(=O)N[C@@H](CC=C)C(=O)N[C@@H](CC(N)=O)C(=O)N[C@@H](Cc1ccccc1)C(N)=O)C(C)C)[C@@H](C)CC [SP2026, LRRFSTMPFMF(AllyGly)NINNV(AllyGly)NF] (H-LRRFSTMPFMF[AllylGly]NINNV[AllylGly]NF-NH2; N-terminus assumed) | Yes | Yes | – | Yes | Yes | – | – | 8.23 µM | – | 96.61% | Complete | – | – | – | – | – | – | – | not affected | 11.43%
